Molecular target: T1, PPARγ (Homo sapiens, UniProt P37231)
T1 construct: made in house; host or cells: Sf9 insect cells (baculovirus), crude cell lysate
T1 sequence (P37231 1-505): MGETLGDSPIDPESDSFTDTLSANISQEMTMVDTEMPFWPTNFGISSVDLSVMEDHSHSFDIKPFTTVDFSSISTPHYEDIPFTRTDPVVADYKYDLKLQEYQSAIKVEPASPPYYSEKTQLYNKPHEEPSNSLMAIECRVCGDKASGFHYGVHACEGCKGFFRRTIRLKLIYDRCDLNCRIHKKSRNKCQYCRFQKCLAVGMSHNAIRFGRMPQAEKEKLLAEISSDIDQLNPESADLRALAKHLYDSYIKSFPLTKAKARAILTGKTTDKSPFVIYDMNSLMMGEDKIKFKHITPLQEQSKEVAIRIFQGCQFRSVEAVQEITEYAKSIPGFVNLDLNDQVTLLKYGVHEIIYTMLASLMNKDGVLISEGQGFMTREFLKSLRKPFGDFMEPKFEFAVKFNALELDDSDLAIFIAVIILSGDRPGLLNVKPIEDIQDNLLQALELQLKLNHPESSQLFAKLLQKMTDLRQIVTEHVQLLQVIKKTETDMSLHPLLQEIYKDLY
T1 sequence (P19793 1-462 partner): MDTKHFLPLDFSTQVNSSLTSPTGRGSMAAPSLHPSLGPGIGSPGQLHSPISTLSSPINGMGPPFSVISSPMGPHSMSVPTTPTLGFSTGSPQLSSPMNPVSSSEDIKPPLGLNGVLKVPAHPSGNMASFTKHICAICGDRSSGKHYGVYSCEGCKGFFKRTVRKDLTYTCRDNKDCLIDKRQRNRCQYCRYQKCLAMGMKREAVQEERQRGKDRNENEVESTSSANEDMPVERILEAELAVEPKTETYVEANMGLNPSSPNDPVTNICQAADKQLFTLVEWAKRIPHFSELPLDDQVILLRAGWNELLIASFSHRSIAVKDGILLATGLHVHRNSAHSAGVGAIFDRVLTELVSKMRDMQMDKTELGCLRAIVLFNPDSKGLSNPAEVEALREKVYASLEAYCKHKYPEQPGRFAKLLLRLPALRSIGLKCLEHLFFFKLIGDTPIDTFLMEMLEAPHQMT
Assay: PPAR gamma binding assay (SPA)
Conditions: n=2, read-out: Ki PPAR γ binding
Description: The nucleotide sequences encoding full-length PPARα receptor DNA (National Center for Biotechnology Information (NCBI) Reference Sequence NM_005036.4), PPARδ receptor DNA (NCBI Reference Sequence NM_006238.4), PPARγ receptor DNA (NCBI Reference Sequence NM_015869.4) and Retinoid X Receptor (RXR) α DNA (NCBI Reference Sequence NM_002957.4) are synthesized and inserted into pFastBacHTb (Invitrogen) vector in-framed with the N-terminal HIS tag from the vector. […] The protein concentration is determined by Bradford assay using BSA as the standard.
Binding Affinities of Compounds for the PPAR α, δ, γ Receptors are Assessed Using Scintillation Proximity Assay (SPA) Technology.
Biotinylated oligonucleotide(DR2) ^5′[…]^3′ (SEQ ID NO: 1) is used for binding of receptors to Yttrium silicate streptavidin-coated SPA beads (Perkin Elmer). The PPAR α, δ, γ and Retinoid X Receptor (RXR) α receptors (endogenously expressed as heterodimers) are cell lysates from Baculovirus expression systems in Sf9 cells. […] Non-specific binding is determined in the presence of 10000 nM unlabeled GW2331 (Kliewer, S. A. et al Proc. Natl. Acad. Sci. USA (1997), 94: 4318-4323) for the alpha and delta receptors and 2-methyl-2-[4-[3-[propyl[(5-pyridin-2-ylthiophen-2-yl)sulfonyl]amino]-propyl]phenoxy]propanoic (WO 2004/073606) for the gamma receptor. […]

Q: How did the Ki turn out when `CCCc1c(NC(=O)CC(C)(C)C(=O)[O-])cccc1OCCCOc1cc(O)c(-c2ccc(F)cc2)cc1CC.[Na+]` [Example 2, Sodium 4-[[3-[3-[2-ethyl-4-(4-fluorophenyl)-5-hydroxy-phenoxy]propoxy]-2-propyl-phenyl]amino]-2,2-dimethyl-4-oxo-butanoate] was run?
A: 1380 nM
